In ChEMBL document CHEMBL1201862, “PubChem BioAssay data set” (2004):
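Each compound was tested at five concentrations against cells in 96-well plates for 48 hours. GI50: concentration for 50% inhibition of growth.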 The source made the active and inactive calls. No stated cut-off is given here; in the data, active = GI50 up to about 1.1 µM and inactive = higher.

Assays:
Test in all cases: DTP human tumour cell line panel, 48 h
HOP-62 = tested on: HOP-62
T47D = tested on: T47D
A549 = tested on: A549
CAKI-1 = tested on: CAKI-1
Malme-3M = tested on: Malme-3M
SN12C = tested on: SN12C
SK-MEL-5 = tested on: SK-MEL-5
SK-MEL-2 = tested on: SK-MEL-2
MDA-MB-435 = tested on: MDA-MB-435
IGROV-1 = tested on: IGROV-1
TK-10 = tested on: TK-10
SR = tested on: SR
HL-60 = tested on: HL-60
CCRF-CEM = tested on: CCRF-CEM
SK-MEL-28 = tested on: SK-MEL-28
A498 = tested on: A498
SNB-19 = tested on: SNB-19
SF-268 = tested on: SF-268
BT-549 = tested on: BT-549

Measured: GI50

O=c1ccn2n1CCCCC2
inactive: HOP-62 > 100 µM | T47D 58.2 µM | A549 > 100 µM | CAKI-1 > 100 µM | Malme-3M > 100 µM | SN12C > 100 µM | SK-MEL-5 > 100 µM | SK-MEL-2 > 100 µM | MDA-MB-435 > 100 µM | IGROV-1 > 100 µM | TK-10 > 100 µM | SR > 100 µM | HL-60 > 100 µM | CCRF-CEM > 100 µM | SK-MEL-28 > 100 µM | A498 > 100 µM | SNB-19 > 100 µM | SF-268 > 100 µM

CC(C)(C)n1c(=O)n(-c2ccccc2)n(C(C)(C)C)c1=O
inactive: HOP-62 > 100 µM | A549 > 100 µM | CAKI-1 > 100 µM | Malme-3M > 100 µM | BT-549 > 100 µM | SN12C > 100 µM | SK-MEL-5 > 100 µM | SK-MEL-2 > 100 µM | IGROV-1 > 100 µM | TK-10 > 100 µM | SR > 100 µM | HL-60 > 100 µM | CCRF-CEM > 100 µM | SK-MEL-28 > 100 µM | A498 > 100 µM | SNB-19 > 100 µM

COC(=O)c1ccccc1CC(Cc1ccc2c(c1)CCC2)C(=O)OC (stereo not drawn)
inactive: HOP-62 > 100 µM | T47D > 100 µM | A549 > 100 µM | CAKI-1 > 100 µM | Malme-3M 33.3 µM | SN12C > 100 µM | SK-MEL-5 32.4 µM | SK-MEL-2 > 100 µM | MDA-MB-435 66.1 µM | IGROV-1 > 100 µM | TK-10 > 100 µM | SR 36.9 µM | HL-60 45.9 µM | CCRF-CEM 47.3 µM | SK-MEL-28 > 100 µM | A498 > 100 µM | SNB-19 > 100 µM | SF-268 > 100 µM

COc1cc(/C=C2\[C@H]3c4c(c(OC)c(C)c(OC)c4OC)C[C@@H](C(=O)N2Cc2ccccc2)N3C(=O)OCC(C)C)c(OC)c(C)c1OC
inactive: HOP-62 > 100 µM | A549 > 71.1 µM | CAKI-1 23.6 µM | Malme-3M > 100 µM | SN12C > 100 µM | SK-MEL-5 26.2 µM | SK-MEL-2 > 100 µM | IGROV-1 > 77.8 µM | TK-10 > 100 µM | SR 13.3 µM | HL-60 7.46 µM | CCRF-CEM 33.6 µM | SK-MEL-28 > 100 µM | A498 > 65.9 µM | SNB-19 > 100 µM | SF-268 > 100 µM

NCCS(=O)(=O)O [TAURINE]
inactive: HOP-62 > 100 µM | T47D > 100 µM | A549 > 100 µM | CAKI-1 > 100 µM | Malme-3M > 100 µM | SN12C > 100 µM | SK-MEL-5 > 100 µM | SK-MEL-2 > 100 µM | MDA-MB-435 > 100 µM | IGROV-1 > 100 µM | TK-10 > 100 µM | SR > 100 µM | HL-60 > 100 µM | CCRF-CEM > 100 µM | SK-MEL-28 > 100 µM | SNB-19 > 100 µM | SF-268 > 100 µM

CSCCCS/C1=C/CCCCCCCCCC1
inactive: HOP-62 > 100 µM | T47D > 100 µM | A549 > 100 µM | CAKI-1 > 100 µM | Malme-3M > 100 µM | SN12C > 100 µM | SK-MEL-5 > 100 µM | SK-MEL-2 > 100 µM | MDA-MB-435 > 100 µM | IGROV-1 > 100 µM | TK-10 > 100 µM | SR > 100 µM | HL-60 > 100 µM | SK-MEL-28 > 100 µM | A498 > 100 µM | SNB-19 > 100 µM | SF-268 > 100 µM

COc1cccc([C@@H]2CC(=O)c3cc4c(cc3N2)OCO4)c1
inactive: HOP-62 > 100 µM | T47D > 100 µM | A549 > 100 µM | CAKI-1 > 100 µM | SN12C > 100 µM | SK-MEL-5 96.8 µM | SK-MEL-2 > 100 µM | MDA-MB-435 71.6 µM | TK-10 > 100 µM | CCRF-CEM > 100 µM | SK-MEL-28 > 100 µM | A498 > 100 µM | SNB-19 > 100 µM | SF-268 > 100 µM

O=[N+]([O-])c1ccc(S(=O)(=O)n2c3ccc(Br)cc3c3nc4ccccc4nc32)cc1
inactive: HOP-62 > 100 µM | T47D > 100 µM | A549 > 100 µM | CAKI-1 > 100 µM | SN12C > 100 µM | SK-MEL-5 > 100 µM | SK-MEL-2 > 100 µM | MDA-MB-435 > 100 µM | IGROV-1 > 100 µM | TK-10 > 100 µM | SR > 100 µM | CCRF-CEM 20.7 µM | SK-MEL-28 > 100 µM | A498 > 100 µM | SNB-19 > 100 µM | SF-268 > 100 µM

CSc1ncnc2c1ncn2CCC(=O)O
inactive: HOP-62 > 100 µM | A549 > 100 µM | CAKI-1 > 100 µM | Malme-3M > 100 µM | SN12C > 100 µM | SK-MEL-5 > 100 µM | MDA-MB-435 > 100 µM | IGROV-1 > 100 µM | TK-10 > 100 µM | SR > 100 µM | HL-60 > 100 µM | CCRF-CEM > 100 µM | SK-MEL-28 > 100 µM | A498 > 100 µM | SNB-19 > 100 µM | SF-268 > 100 µM

CC(=O)NC(CCCCN)C(=O)NCc1ccccc1 (stereo not drawn)
inactive: HOP-62 > 100 µM | A549 > 100 µM | CAKI-1 > 100 µM | Malme-3M > 100 µM | SN12C > 100 µM | SK-MEL-5 > 100 µM | SK-MEL-2 > 100 µM | IGROV-1 > 100 µM | TK-10 > 100 µM | CCRF-CEM > 100 µM | SK-MEL-28 > 100 µM | A498 > 100 µM | SNB-19 > 100 µM | SF-268 42.1 µM

CC(C)CCC(=O)c1ccoc1 [PERILLAKETONE]
inactive: HOP-62 > 100 µM | T47D > 100 µM | A549 > 100 µM | CAKI-1 > 100 µM | Malme-3M > 100 µM | SN12C > 100 µM | SK-MEL-5 > 100 µM | SK-MEL-2 > 100 µM | MDA-MB-435 > 100 µM | IGROV-1 > 100 µM | TK-10 > 100 µM | SR > 100 µM | HL-60 > 100 µM | CCRF-CEM > 100 µM | SK-MEL-28 > 100 µM | SNB-19 > 100 µM | SF-268 > 100 µM

Clc1cc(N/N=C(/c2ccccc2)c2ncccn2)ncn1
inactive: HOP-62 26.8 µM | A549 26 µM | CAKI-1 7.96 µM | BT-549 38.5 µM | SN12C 29.2 µM | SK-MEL-5 25.8 µM | SK-MEL-2 32.7 µM | MDA-MB-435 48.3 µM | IGROV-1 17.5 µM | SR 30.2 µM | CCRF-CEM 4.53 µM | SK-MEL-28 36.9 µM | SNB-19 60.7 µM | SF-268 34 µM
